Legend:
PC-3 [1] = experiment: Antiproliferative activity against human PC3 cells after 48 hrs by Hoechst 33342 staining-based assay; assay type: functional, cell-based; conditions: PC-3, 48 h
Fibroblast = experiment: Antiproliferative activity against human fibroblast cells after 48 hrs by Hoechst 33342 staining-based assay; assay type: cell-based
MDA-MB-231 [2] = experiment: Antiproliferative activity against human MDA-MB-231 cells after 48 hrs by Hoechst 33342 staining-based assay; assay type: functional, cell-based; conditions: MDA-MB-231, 48 h
HCT-116 [3] = experiment: Antiproliferative activity against human HCT116 cells after 48 hrs by Hoechst 33342 staining-based assay; assay type: functional, cell-based; conditions: HCT-116, 48 h
NCI-H727 = experiment: Antiproliferative activity against human NCI-H727 cells after 48 hrs by Hoechst 33342 staining-based assay; assay type: functional, cell-based; conditions: NCI-H727, 48 h
Huh-7 [4] = experiment: Antiproliferative activity against human HuH7 cells after 48 hrs by Hoechst 33342 staining-based assay; assay type: functional, cell-based; conditions: Huh-7, 48 h
Caco-2 = experiment: Antiproliferative activity against human Caco2 cells after 48 hrs by Hoechst 33342 staining-based assay; assay type: functional, cell-based; conditions: Caco-2, 48 h
HaCaT [5] = experiment: Antiproliferative activity against human HaCaT cells after 48 hrs by Hoechst 33342 staining-based assay; assay type: cell-based
Huh-7 [6] = experiment: Antiproliferative activity against human HuH7 cells at 0.1 to 25 uM after 48 hrs by Hoechst 33342 staining-based assay relative to control; assay type: functional
HCT-116 [7] = experiment: Antiproliferative activity against human HCT116 cells at 0.1 to 25 uM after 48 hrs by Hoechst 33342 staining-based assay relative to control; assay type: functional
HaCaT [8] = experiment: Antiproliferative activity against human HaCaT cells at 0.1 to 25 uM after 48 hrs by Hoechst 33342 staining-based assay relative to control; assay type: cell-based
PC-3 [9] = experiment: Antiproliferative activity against human PC3 cells at 0.1 to 25 uM after 48 hrs by Hoechst 33342 staining-based assay relative to control; assay type: functional
MDA-MB-231 [10] = experiment: Antiproliferative activity against human MDA-MB-231 cells at 0.1 to 25 uM after 48 hrs by Hoechst 33342 staining-based assay relative to control; assay type: functional

| SMILES | IC50 (PC-3 [1]) | IC50 (MDA-MB-231 [2]) | IC50 (HCT-116 [3]) | IC50 (NCI-H727) | IC50 (Huh-7 [4]) | IC50 (Caco-2) | IC50 (Fibroblast) | IC50 (HaCaT [5]) | Activity (Huh-7 [6]) | Activity (HCT-116 [7]) | Activity (HaCaT [8]) | Activity (PC-3 [9]) | Activity (MDA-MB-231 [10]) |
| --- | --- | --- | --- | --- | --- | --- | --- | --- | --- | --- | --- | --- | --- |
| CC(=O)c1cccc(-c2ccc(OCc3ccccc3)nn2)c1 | > 25 µM | > 25 µM | > 25 µM | > 25 µM | > 25 µM | > 25 µM | > 25 µM | > 25 µM | – | – | – | – | – |
| CCOC(=O)c1ccccc1-c1ccc(N2CCOCC2)nn1 | > 25 µM | > 25 µM | > 25 µM | > 25 µM | > 25 µM | > 25 µM | > 25 µM | > 25 µM | – | – | – | – | – |
| FC(F)(F)c1cccc(-c2ccc(Oc3ccccc3)nn2)c1 | > 25 µM | > 25 µM | > 25 µM | > 25 µM | > 25 µM | > 25 µM | > 25 µM | > 25 µM | – | – | – | – | – |
| c1ccc2nc(-c3ccc(N4CCOCC4)nn3)ccc2c1 | > 25 µM | > 25 µM | > 25 µM | > 25 µM | > 25 µM | > 25 µM | > 25 µM | > 25 µM | – | – | – | – | – |
| Cc1ccc(-c2ccc(N3CCN(c4ccccc4)CC3)nn2)cc1 | > 25 µM | > 25 µM | > 25 µM | > 25 µM | 30 µM | 50 µM | > 25 µM | > 25 µM | 75% | – | – | – | – |
| CCN(CC)c1ccc(-c2cccc(Cl)c2)nn1 | > 25 µM | > 25 µM | > 25 µM | > 25 µM | > 25 µM | > 25 µM | > 25 µM | > 25 µM | – | – | – | – | – |
| CCCCOc1ccc(-c2cccc(C#N)c2)nn1 | > 25 µM | > 25 µM | > 25 µM | > 25 µM | > 25 µM | > 25 µM | > 25 µM | > 25 µM | – | – | – | – | – |
| c1cncc(-c2ccc(N3CCOCC3)nn2)c1 | > 25 µM | > 25 µM | > 25 µM | > 25 µM | > 25 µM | > 25 µM | > 25 µM | > 25 µM | – | – | – | – | – |
| CCOC(=O)c1ccc(-c2ccc(OCC)nn2)cc1 | > 25 µM | > 25 µM | > 25 µM | > 25 µM | > 25 µM | > 25 µM | > 25 µM | > 25 µM | – | – | – | – | – |
| COC(=O)c1cccc(-c2ccc(-n3cccc3)nn2)c1 | > 25 µM | > 25 µM | > 25 µM | > 25 µM | 30 µM | 50 µM | > 25 µM | > 25 µM | 75% | – | – | – | – |
| COc1ccc(-c2ccc(N3CCOCC3)nn2)cc1 | > 25 µM | > 25 µM | > 25 µM | > 25 µM | > 25 µM | > 25 µM | > 25 µM | > 25 µM | – | – | – | – | – |
| COc1ccc(Nc2ccc(-c3ccccc3)nn2)cc1 | > 25 µM | > 25 µM | > 25 µM | > 25 µM | 30 µM | 50 µM | > 25 µM | > 25 µM | 75% | – | – | – | – |
| FC(F)(F)c1cccc(-c2ccc(N3CCCC3)nn2)c1 | > 25 µM | > 25 µM | > 25 µM | > 25 µM | 30 µM | 50 µM | > 25 µM | > 25 µM | 75% | – | – | – | – |
| CCOC(=O)c1ccc(-c2ccc(OC(C)C)nn2)cc1 | > 25 µM | > 25 µM | > 25 µM | > 25 µM | > 25 µM | > 25 µM | > 25 µM | > 25 µM | – | – | – | – | – |
| CCN(CC)c1ccc(-c2ccc(C(=O)O)cc2)nn1 | > 25 µM | > 25 µM | > 25 µM | > 25 µM | > 25 µM | > 25 µM | > 25 µM | > 25 µM | – | – | – | – | – |
| CCOC(=O)c1ccc(-c2ccc(N3CCOCC3)nn2)cc1 | > 25 µM | > 25 µM | > 25 µM | > 25 µM | > 25 µM | > 25 µM | > 25 µM | > 25 µM | – | – | – | – | – |
| CCN(CC)c1ccc(-c2cccc(OC)c2)nn1 | > 25 µM | > 25 µM | > 25 µM | > 25 µM | > 25 µM | > 25 µM | > 25 µM | > 25 µM | – | – | – | – | – |
| FC(F)(F)c1cccc(-c2ccc(N3CCOCC3)nn2)c1 | > 25 µM | > 25 µM | > 25 µM | > 25 µM | > 25 µM | > 25 µM | > 25 µM | > 25 µM | – | – | – | – | – |
| c1cc(-c2ccc(N3CCOCC3)nn2)cs1 | > 25 µM | > 25 µM | > 25 µM | > 25 µM | > 25 µM | > 25 µM | > 25 µM | > 25 µM | – | – | – | – | – |
| c1ccc(Oc2ccc(-c3ccsc3)nn2)cc1 | > 25 µM | > 25 µM | > 25 µM | > 25 µM | > 25 µM | > 25 µM | > 25 µM | > 25 µM | – | – | – | – | – |
| Fc1ccc(-c2ccc(N3CCOCC3)nn2)cc1 | > 25 µM | > 25 µM | > 25 µM | > 25 µM | > 25 µM | > 25 µM | > 25 µM | > 25 µM | – | – | – | – | – |

More lines, main results first:

| IC50 (PC-3 [1]) | IC50 (MDA-MB-231 [2]) | IC50 (HCT-116 [3]) | IC50 (NCI-H727) | IC50 (Huh-7 [4]) | IC50 (Caco-2) | SMILES | IC50 (Fibroblast) | IC50 (HaCaT [5]) | Activity (Huh-7 [6]) | Activity (HCT-116 [7]) | Activity (HaCaT [8]) | Activity (PC-3 [9]) | Activity (MDA-MB-231 [10]) |
| --- | --- | --- | --- | --- | --- | --- | --- | --- | --- | --- | --- | --- | --- |
| > 25 µM | > 25 µM | > 25 µM | > 25 µM | > 25 µM | > 25 µM | Cc1cccc(-c2ccc(Oc3ccc(F)cc3)nn2)c1 | > 25 µM | > 25 µM | – | – | – | – | – |
| > 25 µM | > 25 µM | > 25 µM | > 25 µM | 30 µM | 50 µM | CN1CCN(c2ccc(-c3cccc(C(F)(F)F)c3)nn2)CC1 | > 25 µM | > 25 µM | 75% | – | – | – | – |
| > 25 µM | > 25 µM | > 25 µM | > 25 µM | 30 µM | 50 µM | COc1ccccc1-c1ccc(N2CCN(C)CC2)nn1 | > 25 µM | > 25 µM | 75% | – | – | – | – |
| > 25 µM | > 25 µM | > 25 µM | > 25 µM | > 25 µM | > 25 µM | N#Cc1ccc(Oc2ccc(-c3ccccc3)nn2)cc1 | > 25 µM | > 25 µM | – | – | – | – | – |
| > 25 µM | > 25 µM | > 25 µM | > 25 µM | > 25 µM | > 25 µM | COc1ccc(-c2ccc(Oc3ccccc3)nn2)cc1 | > 25 µM | > 25 µM | – | – | – | – | – |
| > 25 µM | > 25 µM | > 25 µM | > 25 µM | > 25 µM | > 25 µM | Cc1cccc(-c2ccc(N3CCOCC3)nn2)c1 | > 25 µM | > 25 µM | – | – | – | – | – |
| 1.2 µM | 8 µM | 3 µM | > 25 µM | 6 µM | 0.8 µM | Oc1cccc(-c2nc(N3CCOCC3)c3oc4ncccc4c3n2)c1 [PI-103] | > 25 µM | 2 µM | 40% | 80% | 70% | 60% | 40% |
| > 25 µM | > 25 µM | > 25 µM | > 25 µM | > 25 µM | > 25 µM | CCN(CC)c1ccc(-c2ccc(C#N)cc2)nn1 | > 25 µM | > 25 µM | – | – | – | – | – |
| > 25 µM | > 25 µM | > 25 µM | > 25 µM | > 25 µM | > 25 µM | c1ccc(-c2ccc(N3CCOCC3)nn2)cc1 | > 25 µM | > 25 µM | – | – | – | – | – |
| > 25 µM | > 25 µM | > 25 µM | > 25 µM | 30 µM | 50 µM | CC(=O)c1ccc(-c2ccc(N3CCCC3)nn2)cc1 | > 25 µM | > 25 µM | 75% | – | – | – | – |
| > 25 µM | > 25 µM | > 25 µM | > 25 µM | > 25 µM | > 25 µM | CCN(CC)c1ccc(-c2cccc(C#N)c2)nn1 | > 25 µM | > 25 µM | – | – | – | – | – |
| > 25 µM | > 25 µM | > 25 µM | > 25 µM | > 25 µM | > 25 µM | CCN(CC)c1ccc(-c2cccc(C(F)(F)F)c2)nn1 | > 25 µM | > 25 µM | – | – | – | – | – |
| > 25 µM | > 25 µM | > 25 µM | > 25 µM | > 25 µM | > 25 µM | CCCCOc1ccc(-c2ccc(C(=O)OCC)cc2)nn1 | > 25 µM | > 25 µM | – | – | – | – | – |
| > 25 µM | > 25 µM | > 25 µM | > 25 µM | > 25 µM | > 25 µM | CCOC(=O)c1cccc(-c2ccc(N3CCOCC3)nn2)c1 | > 25 µM | > 25 µM | – | – | – | – | – |

From ChEMBL document CHEMBL4422646, “Synthesis and biological evaluation of 3-amino-, 3-alkoxy- and 3-aryloxy-6-(hetero)arylpyridazines as potent antitumor agents” (Bioorg Med Chem Lett, 2019)
